Experimental data reported in ChEMBL document CHEMBL4043108, “Identification of galiellalactone-based novel STAT3-selective inhibitors with cytotoxic activities against triple-negative breast cancer cell lines” (Bioorg Med Chem, 2017).
Active and inactive are the calls of the source. The rule behind the calls is not given here.

What was measured:
MDA-MB-231 = assay: Cytotoxic activity against human MDA-MB-231 cells incubated for 24 hrs by MTT assay; assay type: functional, cell-based; settings: MDA-MB-231, 24 h
BT-549 = assay: Cytotoxic activity against human BT549 cells incubated for 24 hrs by MTT assay; assay type: functional, cell-based; settings: BT-549, 24 h
[1] = target: Signal transducer and activator of transcription 3 (Homo sapiens) (UniProt P40763); assay: Inhibition of STAT3 transcriptional activity in human MDA-MB-468 cells at 5 uM incubated for 24 hrs by STAT3-dependent luciferase reporter assay; assay type: cell-based
MDA-MB-468 [2] = assay: Cytotoxic activity against human MDA-MB-468 cells incubated for 24 hrs by MTT assay; assay type: functional, cell-based; settings: MDA-MB-468, 24 h
MDA-MB-468 [3] = assay: Effect on total STAT3 protein level in human MDA-MB-468 cells at 5 and 10 uM incubated for 4 hrs by Western blot; assay type: cell-based; settings: mda-mb-468, 4 h
[4] = Toxicity in human MDA-MB-468 cells assessed as cell viability at 10 uM incubated for 24 hrs by MTT assay (reference value: 100%); assay type: cell-based; settings: read-out: Activity
[5] = Toxicity in human MDA-MB-468 cells assessed as cell viability at 5 uM incubated for 24 hrs by MTT assay (reference value: 100%); assay type: cell-based; settings: read-out: Activity
MDA-MB-468 [6] = assay: Effect on total STAT1 protein level in human MDA-MB-468 cells at 5 and 10 uM incubated for 4 hrs by Western blot; assay type: cell-based; settings: mda-mb-468, 4 h
[7] = target: Signal transducer and activator of transcription 3 (Homo sapiens) (UniProt P40763); assay: Inhibition of STAT3 Tyr705 phosphorylation in human MDA-MB-468 cells at 5 and 10 uM incubated for 4 hrs by Western blot; assay type: cell-based
[8] = target: T1, Signal transducer and activator of transcription 1-alpha/beta (Homo sapiens) (UniProt P42224); assay: Inhibition of STAT1 Tyr701 phosphorylation in human MDA-MB-468 cells at 5 and 10 uM incubated for 4 hrs by Western blot; assay type: cell-based
T1 sequence (whole entry): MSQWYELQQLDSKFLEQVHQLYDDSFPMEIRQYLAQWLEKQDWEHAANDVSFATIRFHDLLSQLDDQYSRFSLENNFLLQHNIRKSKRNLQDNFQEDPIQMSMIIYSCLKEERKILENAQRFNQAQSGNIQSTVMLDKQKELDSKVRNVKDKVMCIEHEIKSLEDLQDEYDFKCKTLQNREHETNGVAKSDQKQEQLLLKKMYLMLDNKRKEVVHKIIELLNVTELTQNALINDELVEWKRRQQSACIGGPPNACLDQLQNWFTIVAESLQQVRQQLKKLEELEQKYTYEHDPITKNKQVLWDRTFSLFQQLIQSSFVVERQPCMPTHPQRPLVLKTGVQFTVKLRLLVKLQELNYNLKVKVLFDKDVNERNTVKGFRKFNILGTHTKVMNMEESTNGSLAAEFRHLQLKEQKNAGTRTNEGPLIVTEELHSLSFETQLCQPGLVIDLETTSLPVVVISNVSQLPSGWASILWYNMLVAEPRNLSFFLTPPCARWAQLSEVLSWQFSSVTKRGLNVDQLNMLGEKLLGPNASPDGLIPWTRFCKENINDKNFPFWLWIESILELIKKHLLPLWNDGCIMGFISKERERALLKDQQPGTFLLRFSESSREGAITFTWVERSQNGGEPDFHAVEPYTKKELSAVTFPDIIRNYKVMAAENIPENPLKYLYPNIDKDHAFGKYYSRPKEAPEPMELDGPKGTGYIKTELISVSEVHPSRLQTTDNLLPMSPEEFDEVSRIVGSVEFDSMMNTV

[9] = target: Signal transducer and activator of transcription 3 (Homo sapiens) (UniProt P40763); assay: Inhibition of STAT3 Ser727 phosphorylation in human MDA-MB-468 cells at 5 and 10 uM incubated for 4 hrs by Western blot; assay type: cell-based
[10] = target: T2, Signal transducer and activator of transcription 5A (Homo sapiens) (UniProt P42229); assay: Inhibition of STAT5 Tyr694 phosphorylation in human MDA-MB-468 cells at 5 and 10 uM incubated for 4 hrs by Western blot; assay type: cell-based
T2 sequence (whole entry): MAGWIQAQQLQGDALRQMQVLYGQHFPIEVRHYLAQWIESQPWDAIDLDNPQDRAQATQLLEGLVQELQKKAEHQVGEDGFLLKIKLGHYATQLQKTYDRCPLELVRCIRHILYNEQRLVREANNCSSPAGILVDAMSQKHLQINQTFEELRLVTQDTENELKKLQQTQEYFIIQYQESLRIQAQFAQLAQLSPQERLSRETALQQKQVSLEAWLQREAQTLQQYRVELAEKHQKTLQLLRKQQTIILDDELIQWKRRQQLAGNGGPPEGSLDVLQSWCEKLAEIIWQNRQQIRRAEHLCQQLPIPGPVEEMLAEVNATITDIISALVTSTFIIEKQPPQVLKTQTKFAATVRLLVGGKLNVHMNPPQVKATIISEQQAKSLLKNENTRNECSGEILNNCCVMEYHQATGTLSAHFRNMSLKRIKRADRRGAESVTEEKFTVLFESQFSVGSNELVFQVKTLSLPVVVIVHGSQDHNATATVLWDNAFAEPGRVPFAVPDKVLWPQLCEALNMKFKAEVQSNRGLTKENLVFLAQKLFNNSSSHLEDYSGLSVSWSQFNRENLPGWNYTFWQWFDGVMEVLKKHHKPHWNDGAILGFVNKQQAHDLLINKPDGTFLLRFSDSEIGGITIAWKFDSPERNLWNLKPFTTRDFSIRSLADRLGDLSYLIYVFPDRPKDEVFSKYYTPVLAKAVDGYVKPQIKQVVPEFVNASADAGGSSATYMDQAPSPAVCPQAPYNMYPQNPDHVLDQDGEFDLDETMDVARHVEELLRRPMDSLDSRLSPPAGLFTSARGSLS

Sequence of Signal transducer and activator of transcription 3 (Homo sapiens) (P40763 whole entry): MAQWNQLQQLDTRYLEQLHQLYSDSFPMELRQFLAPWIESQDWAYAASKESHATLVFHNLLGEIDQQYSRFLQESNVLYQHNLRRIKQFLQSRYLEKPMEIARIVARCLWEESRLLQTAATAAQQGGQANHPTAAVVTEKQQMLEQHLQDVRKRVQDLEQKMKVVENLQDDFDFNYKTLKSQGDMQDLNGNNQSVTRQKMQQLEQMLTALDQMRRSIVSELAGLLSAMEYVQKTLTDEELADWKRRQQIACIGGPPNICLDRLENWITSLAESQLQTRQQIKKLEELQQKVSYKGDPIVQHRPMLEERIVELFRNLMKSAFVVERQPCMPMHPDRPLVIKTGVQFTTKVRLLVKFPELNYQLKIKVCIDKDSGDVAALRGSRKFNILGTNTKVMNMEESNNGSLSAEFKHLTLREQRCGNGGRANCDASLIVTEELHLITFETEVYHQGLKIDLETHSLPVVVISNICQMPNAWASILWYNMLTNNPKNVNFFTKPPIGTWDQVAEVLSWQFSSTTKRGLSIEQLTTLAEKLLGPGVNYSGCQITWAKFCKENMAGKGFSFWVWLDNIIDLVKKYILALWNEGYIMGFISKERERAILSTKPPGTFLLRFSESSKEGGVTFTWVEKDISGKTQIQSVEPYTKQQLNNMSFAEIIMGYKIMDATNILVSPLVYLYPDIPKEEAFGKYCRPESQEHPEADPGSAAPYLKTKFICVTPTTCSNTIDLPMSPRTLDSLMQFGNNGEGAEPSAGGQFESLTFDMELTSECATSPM

C[C@H]1C=C2C(=O)O[C@@H]3CC[C@H](C1=O)[C@]23O
IC50 (MDA-MB-231): > 50 µM | IC50 (BT-549): > 50 µM | inhibition [1]: inactive | IC50 (MDA-MB-468 [2]): > 50 µM

C=C1C(=O)O[C@@H]2CC[C@H](CO)[C@H]12
IC50 (MDA-MB-231): > 50 µM | IC50 (BT-549): > 50 µM | inhibition [1]: inactive | IC50 (MDA-MB-468 [2]): > 50 µM

C=C1C(=O)O[C@@H]2CC[C@H](CF)[C@]12O
IC50 (MDA-MB-231): 23.4 µM | IC50 (BT-549): 7.91 µM | IC50 (MDA-MB-468 [2]): 22.6 µM

C[C@@H]1C=C2C(=O)O[C@@H]3CC[C@H]([C@H]1O)[C@]23O
IC50 (MDA-MB-231): > 50 µM | IC50 (BT-549): > 50 µM | inhibition [1]: inactive | IC50 (MDA-MB-468 [2]): > 50 µM

C=C1C(=O)C[C@@H]2CC[C@H](CO)[C@]12O
IC50 (MDA-MB-231): > 50 µM | IC50 (BT-549): 41.1 µM | inhibition [1]: inactive | IC50 (MDA-MB-468 [2]): > 50 µM

CN[C@@H]1C[C@H]2O[C@@](C)([C@@H]1OC)n1c3ccccc3c3c4c(c5c6ccccc6n2c5c31)C(=O)NC4 [STAUROSPORINE]
IC50 (MDA-MB-468 [2]): 0.15 µM

O=C1O[C@@H]2CC[C@@H]3[C@H](O)CC=C1[C@@]32O
IC50 (MDA-MB-231): > 50 µM | IC50 (BT-549): > 50 µM | inhibition [1]: inactive | IC50 (MDA-MB-468 [2]): > 50 µM

C=C1C(=O)O[C@@H]2CC[C@H](CBr)[C@]12OC
IC50 (MDA-MB-231): 8.63 µM | Activity (MDA-MB-468 [3]): Non-Toxic | viability at 24 h, 10 µM [4]: 93% | viability at 24 h, 5 µM [5]: 98% | IC50 (BT-549): 6.61 µM | inhibition [1]: Active | IC50 (MDA-MB-468 [2]): 7.91 µM | Activity (MDA-MB-468 [6]): Non-Toxic | inhibition [7]: Dose-dependent effect | inhibition [8]: inactive | inhibition [9]: inactive

C=C1C(=O)O[C@@H]2CC[C@H](CBr)[C@]12O
IC50 (MDA-MB-231): 12.1 µM | Activity (MDA-MB-468 [3]): Non-Toxic | viability at 24 h, 10 µM [4]: 98% | viability at 24 h, 5 µM [5]: 100% | IC50 (BT-549): 9.63 µM | inhibition [1]: Active | IC50 (MDA-MB-468 [2]): 11.8 µM | Activity (MDA-MB-468 [6]): Non-Toxic | inhibition [7]: Dose-dependent effect | inhibition [8]: inactive | inhibition [9]: inactive

C=C1C(=O)O[C@@H]2CC[C@H](CBr)[C@]12OC(C)=O
IC50 (MDA-MB-231): > 50 µM | IC50 (BT-549): > 50 µM | IC50 (MDA-MB-468 [2]): > 50 µM

C[C@@H]1C(=O)O[C@@H]2CC[C@H](CBr)[C@]12O
IC50 (MDA-MB-231): > 50 µM | IC50 (BT-549): > 50 µM | inhibition [1]: inactive | IC50 (MDA-MB-468 [2]): > 50 µM

C=CC[C@H](O)[C@H]1CC[C@H]2OC(=O)C(=C)[C@@]12O
IC50 (MDA-MB-231): 43.6 µM | IC50 (BT-549): 27.4 µM | inhibition [1]: inactive | IC50 (MDA-MB-468 [2]): 44.1 µM

C[C@H]1C=C2C(=O)O[C@@H]3CC[C@H]([C@@H]1O)[C@]23O
IC50 (MDA-MB-231): > 50 µM | IC50 (BT-549): > 50 µM | inhibition [1]: inactive | IC50 (MDA-MB-468 [2]): > 50 µM

C=C[C@@H](C)[C@H](O)[C@H]1CC[C@H]2CC(=O)C(=C)[C@]21O
IC50 (MDA-MB-231): > 50 µM | IC50 (BT-549): > 50 µM | inhibition [1]: inactive | IC50 (MDA-MB-468 [2]): > 50 µM

C=C[C@H](C)[C@@H](O)[C@H]1CC[C@H]2CC(=O)C(=C)[C@]21O
IC50 (MDA-MB-231): > 50 µM | IC50 (BT-549): 39.3 µM | inhibition [1]: inactive | IC50 (MDA-MB-468 [2]): > 50 µM

O=C1O[C@@H]2CC[C@H](CBr)[C@]2(O)[C@]12CO2
IC50 (MDA-MB-231): > 50 µM | IC50 (BT-549): > 50 µM | inhibition [1]: inactive | IC50 (MDA-MB-468 [2]): > 50 µM

C=C1C(=O)O[C@@H]2CC[C@H](CI)[C@]12O
IC50 (MDA-MB-231): 26 µM | IC50 (BT-549): 17.3 µM | IC50 (MDA-MB-468 [2]): 23.6 µM

C=CC[C@@H](O)[C@H]1CC[C@H]2OC(=O)C(=C)[C@@]12O
IC50 (MDA-MB-231): > 50 µM | IC50 (BT-549): 38.6 µM | inhibition [1]: inactive | IC50 (MDA-MB-468 [2]): > 50 µM

C=CCC(=O)[C@H]1CC[C@H]2OC(=O)C(=C)[C@@]12O
IC50 (MDA-MB-231): 48.3 µM | IC50 (BT-549): 25.3 µM | inhibition [1]: inactive | IC50 (MDA-MB-468 [2]): 42.4 µM

C=C1C(=O)O[C@@H]2CC[C@H](CBr)[C@]12OCC
IC50 (MDA-MB-231): 9.11 µM | IC50 (BT-549): 5.7 µM | inhibition [1]: Active | IC50 (MDA-MB-468 [2]): 7.81 µM

C=C1C(=O)O[C@@H]2CC[C@H](COC)[C@]12OC
IC50 (MDA-MB-231): > 50 µM | IC50 (BT-549): > 50 µM | inhibition [1]: inactive | IC50 (MDA-MB-468 [2]): > 50 µM

C[C@@H]1C=C2C(=O)O[C@@H]3CC[C@H](C1)[C@]23O
IC50 (MDA-MB-231): 16.9 µM | Activity (MDA-MB-468 [3]): Non-Toxic | viability at 24 h, 10 µM [4]: 90% | viability at 24 h, 5 µM [5]: 97% | IC50 (BT-549): 12.7 µM | inhibition [1]: Active | IC50 (MDA-MB-468 [2]): 17.5 µM | inhibition [10]: inactive | inhibition [7]: Dose-dependent effect | inhibition [8]: inactive | inhibition [9]: inactive

C=C1C(=O)O[C@@H]2CC[C@H](CCl)[C@]12O
IC50 (MDA-MB-231): > 50 µM | IC50 (BT-549): > 50 µM | IC50 (MDA-MB-468 [2]): > 50 µM

C=C1C(=O)O[C@@H]2CC[C@H](COC)[C@]12O
IC50 (MDA-MB-231): > 50 µM | IC50 (BT-549): 37.9 µM | inhibition [1]: inactive | IC50 (MDA-MB-468 [2]): > 50 µM

C=C1C(=O)O[C@@H]2CC[C@H](CBr)[C@H]12
IC50 (MDA-MB-231): 33.3 µM | IC50 (BT-549): 24.7 µM | IC50 (MDA-MB-468 [2]): 42.6 µM

O=C1O[C@@H]2CC[C@@H]3[C@@H](O)CC=C1[C@@]32O
IC50 (MDA-MB-231): > 50 µM | IC50 (BT-549): > 50 µM | inhibition [1]: inactive | IC50 (MDA-MB-468 [2]): > 50 µM

C=C1C(=O)O[C@@H]2CC[C@H](CO)[C@]12OC
IC50 (MDA-MB-231): > 50 µM | IC50 (BT-549): > 50 µM | inhibition [1]: inactive | IC50 (MDA-MB-468 [2]): > 50 µM
